Where no end group is shown, it is not given here. [ ]: non-standard residue; d: D form. Aib = CC(C)(N)C(=O)O
Columns and labels:
[1] = test system: MPTP mouse model of Parkinson's disease; details: cited from earlier work
[2] = test system: APP/PS1 mouse model of AD; details: 12 months old APP/PS1 mice; cited from earlier work
C57BL/6 mice given MPTP [3] = assay: Immunohistochemistry for TH in the substantia nigra pars compacta, MPTP Parkinson mouse model; type: in vivo; details: 10 nmol/kg i.p. once daily for 2 weeks, FIG. 4, N=6 per group
Text: (§1) A standard model to induce Parkinson like symptoms in mice is the injection of the chemical (MPTP) (Li et al., 2009). This chemical impairs or kills neurons in the brain that produce dopamine. The mice develop motor impairments, and the dopaminergic neurons in the brain are reduced in numbers and function. The enzyme tyrosine hydroxylase (TH) is required to synthesise dopamine. A loss of TH signifies a loss of dopamine production (Harkavyi et al., 2008).
Adult male C57BL/6 mice were given the dopaminergic toxin MPTP (20 mg/kg in 0.1 mL of PBS i.p. at 2-h intervals of 4 doses MPTP; Sigma) or vehicle (PBS) for one day. […]
Immunohistochemistry for TH in the Substantia Nigra Pars Compacta and the Striatum Six animals per group were analysed for expression of tyrosine hydroxylase (TH), a marker for dopamine production. Coronal brain sections (20 μm) from striatum (bregma […]) and SNpc (bregma […]) were analysed by immunohistochemistry using antibodies recognising TH.
Sections were cut on a cryostat and postfixed in 4% paraformaldehyde, washed in PBS, treated with 0.3% H2O2 in methanol for 20 min, and washed again. […] For each animal, three tissue sections from one level of striatum were stained and analysed for TH-positive fibre innervation. […] Two tissue sections from each level were quantified by immunohistochemistry. […]

APP/PS1 transgenic mice [4] = assay: Immunohistochemical measurement of beta-amyloid plaque load in the cortex of APP/PS1 transgenic mice; type: in vivo
Text: (§2) Animal models have been developed to test novel drugs. A standard model for Alzheimer's disease is transgenic mice that express human mutated genes for amyloid production that are known to induce Alzheimer's disease in humans. These APP/PS1 transgenic mice recapitulate some of the symptoms of Alzheimer's disease such as the aggregation of amyloid in the brain, memory loss and the loss of synapses (Radde et al., 2006).
(§3) The APP/PS1 mice express human Swedish mutated APP and human mutated presenilin-1 which induce Alzheimer's Disease in humans.
(§4) The dose of peptide tested was 10 nmol/kg body weight. The peptides were administered by a once-daily intraperitoneal injection for 8 weeks. Saline injections were administered as a control. Six animals per group were injected with a peptide or a saline control.
(§5) Animals (6 per group) were perfused transcardially with 30 ml of ice-cold PBS and 30 ml of ice-cold 4% paraformaldehyde to postfix the brain. The brains were removed and placed in fresh 30% sucrose solution in PBS to cryoprotect tissue and cut at a thickness of 40 μm on a cryostat. Sections were chosen according to stereological rules, with the first section taken at random and every 5th section afterwards. Between 7 and 13 sections were analysed per brain.
Immunostaining techniques were used to assess the neuronal plaque load (anti beta-amyloid rabbit polyclonal antibody (1:200, rabbit polyclonal-Invitrogen 71-5800) and of synaptophysin (polyclonal rabbit anti-synaptophysin primary antibody, 1:2000, Abcam, Cambridge, UK) to measure the amount of synapses in the cortex. Brain samples were first exposed to 99% formic acid for 7 minutes and then washed 3 times for 10 minutes in TBS. Pre-treatment with 99% formic acid is known to drastically increase the detection of beta-Amyloid in formalin-fixed brain samples. Then samples were incubated in 0.3% H2O2 (Sigma Aldrich; Cat.-No.: 516813) in TBS for 30 minutes on the shaker to deplete endogenous peroxides activity, and were 3 times washed in TBS for 10 minutes afterwards.
To increase permeability of membranes in the brain tissue, samples were exposed to 0.3% Triton X-100 (Sigma Aldrich; Cat.-No.: 516813) in TBS for 10 minutes on the shaker. Unspecific proteinophilic binding in the tissue was saturated by incubating the samples with 5% goat serum (Gibco; Cat.-No.: 16210-064) in TBS for 30 minutes on the shaker.
A primary antibody against beta-Amyloid or synaptophysin was added and incubated overnight on the shaker at 4° C. The antibody was polyclonal and raised against a synthetic beta-Amyloid 1-43 peptide in rabbit. The primary antibody was used in a final dilution of 1 to 250 in TBS containing 2% goat serum and […]. […]

APP/PS1 transgenic mice [5] = assay: Immunohistochemical measurement of synaptic densities (synaptophysin) in the cortex of APP/PS1 transgenic mice; type: in vivo; details: 10 nmol/kg i.p. once daily for 8 weeks, FIG. 2, N=6 per group
Text: as §2, §3, §4
as §5, with “per brain. […]” for “per brain.”

C57BL/6 mice given MPTP [6] = assay: Rotarod motor control test in the MPTP Parkinson mouse model; type: in vivo; details: 10 nmol/kg i.p. once daily for 2 weeks, FIG. 3, N=6 per group
Text: as §1
Adult male C57BL/6 mice were given the dopaminergic toxin MPTP (20 mg/kg in 0.1 mL of PBS i.p. at 2-h intervals of 4 doses MPTP; Sigma) or vehicle (PBS) for one day. This treatment selectively affects dopaminergic neurons and induces Parkinson-like symptoms in mice.
The dose of peptide tested was 10 nmol/kg body weight. The peptides were administered by a once-daily intraperitoneal injection for 2 weeks. Saline injections were administered as a control. Six animals per group were injected with a peptide or a saline control.
The rotarod consists of a rotating pole that accelerates over time. Mice are placed on the rod, and motor skills are tested by accelerating the rotation. As the rotation increases, animals lose grip and fall on a cushion located below the rod. […] Each animal's endurance time was recorded, and the average was calculated. Data were analysed using a one-way ANOVA with post-hoc Bonferroni tests.

Row | Substance | motor impairment, chronic inflammation in the brain and loss of dopaminergic neurons induced by MPTP [1] | amyloid plaque load [2] | synaptic plasticity in area CA1 of the hippocampus and spatial memory formation [2] | MPTP-induced reduction of TH in the substantia nigra, pars compacta (protection of dopaminergic neurons) (C57BL/6 mice given MPTP [3]) | beta-amyloid plaque load in the cortex (% area positive for beta amyloid in cross sections of the brain cortex) (APP/PS1 transgenic mice [4]; 10 nmol/kg body weight, once-daily intraperitoneal injection for 8 weeks, FIG. 1, N=6 per group) | beta-amyloid plaque load compared with the single GIP or GLP-1 analogues (APP/PS1 transgenic mice [4]; 10 nmol/kg i.p. once daily for 8 weeks, FIG. 1) | synapse loss / synaptic densities in the cortex (APP/PS1 transgenic mice [5]) | impairment of motor skills (rotarod endurance time) (C57BL/6 mice given MPTP [6])
1 | D-Ala^2-GIP | protective and prevented the impairment of motor activity, the loss of dopaminergic neurons, loss of synapses and the chronic inflammation response induced by MPTP | much reduced | unimpaired |  |  |  |  | 
2 | YXEGTFTSDYSIYLDKQAAXEFVNWLLAGGPSSGAPPPSKKKKKK-NH2 (Y[Aib]EGTFTSDYSIYLDKQAA[Aib]EFVNWLLAGGPSSGAPPPSKKKKKK-NH2) [DA4, No. 11; X=aminoisobutyric acid] |  |  |  | protected dopaminergic neurons at a greater rate than the single GIP and GLP-1 analogues | reduces beta-amyloid plaque load | superior to the single GIP or GLP-1 analogues | protected from synapse loss | protect mice from an impairment of motor skills induced by MPTP
3 | lixisenatide | good effects in preventing the motor impairment, chronic inflammation in the brain, and loss of dopaminergic neurons |  |  |  |  |  |  | 

Source: patent US11220534B2, “Treatment of neurological diseases” (Lancaster University Business Enterprises Limited, priority 2016, dated 2022)
